Experimental data published in patent US7795315B2, “N-(2-amino-phenyl)-amide derivatives” (Hoffman-La Roche Inc., priority 2008, dated 2010).

Key:
Type in all cases: cell-based
[1] = test system: HCT-116 colon cancer cells; experiment: Antiproliferative activity, growth inhibition (MTS/WST assay); conditions: Homo sapiens, 72 hour growth inhibition, read-out: GI50 HCT116
Protocol: The novel compounds of the present invention were tested for their ability to inhibit growth of various cancer cell lines (HeLa, MCF7, U2OS, HepG2, HL60, HCT-116) using in vitro growth inhibition assays described below.
Cells were seeded in 96-well culture plates (200 microliters/well at different seeding concentrations depending on cell type) and incubated overnight at 37 degrees Celsius in 5% CO2. After adding compound dilutions to the cells (DMSO concentration kept below 0.5%), the cells were incubated at 37 degrees Celsius in 5% CO2 for 72 hours. The effects on proliferation were determined by addition of MTS reagent (Promega) according to the manufacturer's instruction, followed by incubation for 2 hours at 37 degrees Celsius in 5% CO2, and finally recording the absorbance at 490 nm using an ELISA plate reader.
Similar to MTS assay except that the developer is the CCK-8 reagent (Dojindo) and the plate reader is set to 450 nm absorbance.
GI50 values against HCT-116 colon cancer cells for specific representative compounds can be found in Table 4.

[2] = test system: klf2 promoter-luciferase construct in A204 cells; experiment: klf2 reporter gene induction (p21 versus klf2 selectivity); conditions: SNDX-275 p21/klf2 ratio defined as 1.0; for p21/klf2 (RP3): relative selectivity compared with SNDX-275: 3 micromolar; for p21/klf2 (RP10): relative selectivity compared with SNDX-275: 10 micromolar
Protocol: (§1) The novel compounds of the present invention were tested for their ability to induce p21 gene expression using a reporter gene assay involving HeLa cells transfected with a p21 promoter-luciferase construct. The p21 promoter contained the Sp1/Sp3 binding site for HDAC but not the upstream p53 binding site. Briefly, the day before transfection, HeLa cells were seeded at 11,000 cells/well in a 96-well culture plate and incubated at 37 degrees Celsius in 5% CO2 overnight. For transfection, the medium was removed and replaced with 100 microliters/well transfection media previously prepared as follows: 5 microliters serum-free DMEM, 0.15 microliters Fugene 6 reagent, 40 ng p21-luc, 10 ng GFP were mixed gently and incubated at room temperature for 30 minutes; then 98 microliters DMEM (with 10% FBS, 1% penicillin and streptomycin) was added to the DNA:Fugene 6 reagent complex and mixed gently. After incubating the cells for 24 hours at 37 degrees Celsius in 5% CO2, fresh media and test compounds were added to the wells and the cells further incubated for 15 hours at 37 degrees Celsius in 5% CO2. Cells were lysed by adding 80 microliters/well of a cell culture lysis reagent (Promega). 50 microliters of each lysate was taken for GFP detection using an excitation wavelength of 486 nm and detection at 527 nm. 100 microliters Luciferase assay reagent (Promega) was then added to every 20 microliters cell lysate for luminometer detection. […] Induction activity for specific representative compounds can be found in Table 4.
The novel compounds of the present invention were tested for their ability to induce klf2 gene expression using a reporter gene assay involving A204 cells transfected with a klf2 promoter-luciferase construct. The klf2 promoter contained the MEF2 binding site for HDAC3/class IIa HDAC complex. Briefly, the day before transfection, A204 cells were seeded at 11,000 cells/well in a 96-well culture plate and incubated at 37 degrees Celsius in 5% CO2 overnight. For transfection, the medium was removed and replaced with 100 microliters/well transfection media previously prepared as follows: 5 microliters serum-free DMEM, 0.15 microliters Fugene 6 reagent, 40 ng klf2-luc, 10 ng GFP were mixed gently and incubated at room temperature for 30 minutes; then 98 microliters DMEM (with 10% FBS, 1% penicillin and streptomycin) was added to the DNA:Fugene 6 reagent complex and mixed gently. After incubating the cells for 24 hours at 37 degrees Celsius in 5% CO2, fresh media and test compounds were added to the wells and the cells further incubated for 15 hours at 37 degrees Celsius in 5% CO2. Finally, 10 ng/ml TNF-α was added and the cells further incubated for 4 hours. Cells were lysed by adding 80 microliters/well of a cell culture lysis reagent (Promega). 50 microliters of each lysate was taken for GFP detection using an excitation wavelength of 486 nm and detection at 527 nm. 100 microliters Luciferase assay reagent (Promega) was then added to every 20 microliters cell lysate for luminometer detection.

[3] = test system: p21 promoter-luciferase construct in HeLa cells; experiment: p21 reporter gene induction; conditions: 3 micromolar, 15 hours, relative to SNDX-275
Protocol: as §1

Row | SMILES | GI50 [1] | p21/klf2 (RP3): relative selectivity compared with SNDX-275 [2] | p21/klf2 (RP10): relative selectivity compared with SNDX-275 [2] | p21 (RP3): relative induction potency compared with SNDX-275 [3]
1 | CN(C)CCNC(C(=O)Nc1ccc(Br)cc1)c1ccc(/C=C/C(=O)Nc2ccccc2N)cc1 (stereo not drawn) [Example 9-3, (E)-N-(2-Amino-phenyl)-3-{4-[(4-bromo-phenylcarbamoyl)-(2-dimethylamino-ethylamino)-methyl]-phenyl}-acrylamide] | 300 nM | 1.6 | 1.7 | 152%
2 | Nc1ccccc1NC(=O)/C=C/c1ccc(C(NCCN2CCOCC2)C(=O)Nc2ccc(C(F)(F)F)cc2F)cc1 (stereo not drawn) [Example 4-22, (E)-N-(2-Amino-phenyl)-3-{4-[(2-fluoro-4-trifluoromethyl-phenylcarbamoyl)-(2-morpholin-4-yl-ethylamino)-methyl]-phenyl}-acrylamide] | 1200 nM | 1.8 | 2.0 | 103%
3 | Nc1ccccc1NC(=O)/C=C/c1ccc(C(C(=O)Nc2ccc(C(F)(F)F)cc2)N2CCCCC2)cc1 (stereo not drawn) [Example 9-29, (E)-N-(2-Amino-phenyl)-3-{4-[piperidin-1-yl-(4-trifluoromethyl-phenylcarbamoyl)-methyl]-phenyl}-acrylamide] | 7100 nM | 0.3 | 0.5 | 10%
4 | Nc1ccccc1NC(=O)/C=C/c1ccc(C(NCCO)C(=O)Nc2ccc(C(F)(F)F)cc2)cc1 (stereo not drawn) [Example 4-69, (E)-N-(2-Amino-phenyl)-3-{4-[(2-hydroxy-ethylamino)-(4-trifluoromethyl-phenylcarbamoyl)-methyl]-phenyl}-acrylamide] | 1700 nM | 1.0 | 2.3 | 117%
5 | N#Cc1ccc(NC(=O)C(NCCN2CCOCC2)c2ccc(/C=C/C(=O)Nc3ccccc3N)cc2)cc1 (stereo not drawn) [Example 4-3, (E)-N-(2-Amino-phenyl)-3-{4-[(4-cyano-phenylcarbamoyl)-(2-morpholin-4-yl-ethylamino)-methyl]-phenyl}-acrylamide] | 1000 nM | 0.8 | 1.2 | 99%
6 | C[C@@H]1CN(CCNC(C(=O)Nc2ccc(C(F)(F)F)cc2)c2ccc(/C=C/C(=O)Nc3ccccc3N)cc2)C[C@H](C)O1 (stereo partly drawn) [Example 9-28, (E)-N-(2-Amino-phenyl)-3-{4-[[2-((2R,6S)-2,6-dimethyl-morpholin-4-yl)-ethylamino]-(4-trifluoromethyl-phenylcarbamoyl)-methyl]-phenyl}-acrylamide] | 1800 nM | 0.5 | 0.9 | 33%
7 | Nc1ccccc1NC(=O)/C=C/c1ccc(C(NCCN2CCOCC2)C(=O)Nc2ccc(OC(F)(F)F)cc2)cc1 (stereo not drawn) [Example 4-4, (E)-N-(2-Amino-phenyl)-3-{4-[(2-morpholin-4-yl-ethylamino)-(4-trifluoromethoxy-phenylcarbamoyl)-methyl]-phenyl}-acrylamide] | 1100 nM | 1.2 | 3.1 | 125%
8 | Nc1ccccc1NC(=O)/C=C/c1ccc(C(NCCN2CCOCC2)C(=O)Nc2ccc(C(F)(F)F)cn2)cc1 (stereo not drawn) [Example 4-43, (E)-N-(2-Amino-phenyl)-3-{4-[(2-morpholin-4-yl-ethylamino)-(5-trifluoromethyl-pyridin-2-ylcarbamoyl)-methyl]-phenyl}-acrylamide] | 2200 nM | 0.9 | 2.1 | 89%
9 | Cc1ccc(NC(=O)C(NCCN2CCOCC2)c2ccc(/C=C/C(=O)Nc3ccccc3N)cc2)cc1 (stereo not drawn) [Example 30-54, (E)-N-(2-Amino-phenyl)-3-{4-[(2-morpholin-4-yl-ethylamino)-p-tolylcarbamoyl-methyl]-phenyl}-acrylamide] | 1000 nM | 2.0 | 1.3 | 183%
10 | Nc1ccccc1NC(=O)/C=C/c1ccc(C(NCCN2CCCCC2)C(=O)Nc2ccc(Br)cc2)cc1 (stereo not drawn) [Example 4-31, (E)-N-(2-Amino-phenyl)-3-{4-[(4-bromo-phenylcarbamoyl)-(2-piperidin-1-yl-ethylamino)-methyl]-phenyl}-acrylamide] | 200 nM | 1.2 | 1.2 | 178%
11 | CC(C)(C)c1ccc(NC(=O)C(NCCO)c2ccc(/C=C/C(=O)Nc3ccccc3N)cc2)cc1 (stereo not drawn) [Example 4-68, (E)-N-(2-Amino-phenyl)-3-{4-[(4-tert-butyl-phenylcarbamoyl)-(2-hydroxy-ethylamino)-methyl]-phenyl}-acrylamide] | 3700 nM | 0.5 | 1.3 | 41%
12 | Nc1ccccc1NC(=O)/C=C/c1ccc(C(NCCN2CCCCC2)C(=O)Nc2ccc(OC(F)(F)F)cc2)cc1 (stereo not drawn) [Example 4-48, (E)-N-(2-Amino-phenyl)-3-{4-[(2-piperidin-1-yl-ethylamino)-(4-trifluoromethoxy-phenylcarbamoyl)-methyl]-phenyl}-acrylamide] | 1400 nM | 1.9 | 1.9 | 130%
13 | CN(C)CCNC(C(=O)Nc1ccc(C(F)(F)F)cc1)c1ccc(/C=C/C(=O)Nc2ccccc2N)cc1 (stereo not drawn) [Example 4-1, (E)-N-(2-Amino-phenyl)-3-{4-[(2-dimethylamino-ethylamino)-(4-trifluoromethyl-phenylcarbamoyl)-methyl]-phenyl}-acrylamide] | 700 nM | 1.4 | 5.5 | 300%
14 | Nc1ccccc1NC(=O)/C=C/c1ccc(C(NCCN2CCSCC2)C(=O)Nc2ccc(C(F)(F)F)cc2)cc1 (stereo not drawn) [Example 4-14, (E)-N-(2-Amino-phenyl)-3-{4-[(2-thiomorpholin-4-yl-ethylamino)-(4-trifluoromethyl-phenylcarbamoyl)-methyl]-phenyl}-acrylamide] | 600 nM | 1.2 | 5.1 | 84%
15 | CN(C)CCNC(C(=O)Nc1ccc(OC(F)(F)F)cc1)c1ccc(/C=C/C(=O)Nc2ccccc2N)cc1 (stereo not drawn) [Example 4-6, (E)-N-(2-Amino-phenyl)-3-{4-[(2-dimethylamino-ethylamino)-(4-trifluoromethoxy-phenylcarbamoyl)-methyl]-phenyl}-acrylamide] | 600 nM | 1.4 | 3.0 | 184%
